# From ChEMBL document CHEMBL1201862, “PubChem BioAssay data set” (2004)
# Calls of active or inactive are those of the source.
# Experiments:
# [1] = target: T1, Sentrin-specific protease 8 (Homo sapiens, UniProt Q96LD8); assay: inhibition of sentrin protease 8 – biochemical, luminescence, set 2, SAR follow-up (AID 588601); format: functional
# T1 sequence (Q96LD8 whole entry): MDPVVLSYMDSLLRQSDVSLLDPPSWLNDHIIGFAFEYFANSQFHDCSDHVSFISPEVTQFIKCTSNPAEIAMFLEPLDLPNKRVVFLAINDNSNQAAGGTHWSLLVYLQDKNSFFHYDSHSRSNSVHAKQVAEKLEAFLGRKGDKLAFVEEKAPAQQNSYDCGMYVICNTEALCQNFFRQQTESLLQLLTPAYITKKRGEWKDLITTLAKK
# [2] = target: T2, Sentrin-specific protease 7 (Homo sapiens, UniProt Q9BQF6); assay: inhibition of human SENP7 cleavage activity – biochemical, luminescence, set 2, SAR follow-up (AID 588600); format: functional
# T2 sequence (Q9BQF6 whole entry): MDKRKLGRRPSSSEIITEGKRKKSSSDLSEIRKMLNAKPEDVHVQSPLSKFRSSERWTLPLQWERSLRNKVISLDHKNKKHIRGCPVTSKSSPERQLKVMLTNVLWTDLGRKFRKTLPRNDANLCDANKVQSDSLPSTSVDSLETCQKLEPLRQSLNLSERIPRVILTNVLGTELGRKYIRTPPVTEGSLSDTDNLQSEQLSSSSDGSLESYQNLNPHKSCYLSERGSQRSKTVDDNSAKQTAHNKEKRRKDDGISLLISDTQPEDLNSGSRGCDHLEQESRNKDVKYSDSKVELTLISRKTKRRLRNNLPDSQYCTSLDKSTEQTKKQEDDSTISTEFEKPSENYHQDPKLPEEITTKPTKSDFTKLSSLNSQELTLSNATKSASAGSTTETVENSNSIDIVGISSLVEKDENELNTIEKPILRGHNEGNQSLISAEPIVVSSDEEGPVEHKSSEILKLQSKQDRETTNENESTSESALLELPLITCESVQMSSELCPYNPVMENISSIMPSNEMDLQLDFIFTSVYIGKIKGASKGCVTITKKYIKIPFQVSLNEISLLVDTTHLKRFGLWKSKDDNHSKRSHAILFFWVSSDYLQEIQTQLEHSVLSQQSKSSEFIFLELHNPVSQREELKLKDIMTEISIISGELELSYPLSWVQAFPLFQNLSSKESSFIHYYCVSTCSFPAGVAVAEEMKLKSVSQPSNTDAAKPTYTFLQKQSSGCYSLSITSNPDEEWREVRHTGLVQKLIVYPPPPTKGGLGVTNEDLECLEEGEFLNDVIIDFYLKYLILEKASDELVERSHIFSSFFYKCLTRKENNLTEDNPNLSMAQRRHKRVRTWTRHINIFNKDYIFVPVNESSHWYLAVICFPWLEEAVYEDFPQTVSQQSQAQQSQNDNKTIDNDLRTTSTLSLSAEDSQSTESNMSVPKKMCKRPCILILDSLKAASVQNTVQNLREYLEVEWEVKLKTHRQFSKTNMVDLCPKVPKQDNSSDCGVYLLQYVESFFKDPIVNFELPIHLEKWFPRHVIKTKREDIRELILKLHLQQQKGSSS
# Caspase-3 [3] = target: T3, Caspase-3 (Homo sapiens, UniProt P42574); assay: inhibition of recombinant caspase-3 activity – biochemical, luminescence, set 2, selectivity assay for SENP protease inhibitor project, SAR follow-up (AID 588599); format: functional
# T3 sequence (P42574 whole entry): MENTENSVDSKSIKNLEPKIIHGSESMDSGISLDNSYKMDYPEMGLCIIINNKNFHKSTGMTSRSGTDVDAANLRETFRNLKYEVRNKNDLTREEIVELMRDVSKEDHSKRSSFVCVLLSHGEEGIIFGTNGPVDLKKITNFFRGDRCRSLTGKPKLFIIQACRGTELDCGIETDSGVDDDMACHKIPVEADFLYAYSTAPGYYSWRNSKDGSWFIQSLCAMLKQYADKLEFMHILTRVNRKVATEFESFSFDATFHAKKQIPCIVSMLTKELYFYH
# [4] = target: T4, Sentrin-specific protease 6 (Homo sapiens, UniProt Q9GZR1); assay: inhibition of human SENP6 catalytic domain – biochemical, luminescence, set 2, SAR follow-up (AID 588598); format: functional
# T4 sequence (Q9GZR1 whole entry): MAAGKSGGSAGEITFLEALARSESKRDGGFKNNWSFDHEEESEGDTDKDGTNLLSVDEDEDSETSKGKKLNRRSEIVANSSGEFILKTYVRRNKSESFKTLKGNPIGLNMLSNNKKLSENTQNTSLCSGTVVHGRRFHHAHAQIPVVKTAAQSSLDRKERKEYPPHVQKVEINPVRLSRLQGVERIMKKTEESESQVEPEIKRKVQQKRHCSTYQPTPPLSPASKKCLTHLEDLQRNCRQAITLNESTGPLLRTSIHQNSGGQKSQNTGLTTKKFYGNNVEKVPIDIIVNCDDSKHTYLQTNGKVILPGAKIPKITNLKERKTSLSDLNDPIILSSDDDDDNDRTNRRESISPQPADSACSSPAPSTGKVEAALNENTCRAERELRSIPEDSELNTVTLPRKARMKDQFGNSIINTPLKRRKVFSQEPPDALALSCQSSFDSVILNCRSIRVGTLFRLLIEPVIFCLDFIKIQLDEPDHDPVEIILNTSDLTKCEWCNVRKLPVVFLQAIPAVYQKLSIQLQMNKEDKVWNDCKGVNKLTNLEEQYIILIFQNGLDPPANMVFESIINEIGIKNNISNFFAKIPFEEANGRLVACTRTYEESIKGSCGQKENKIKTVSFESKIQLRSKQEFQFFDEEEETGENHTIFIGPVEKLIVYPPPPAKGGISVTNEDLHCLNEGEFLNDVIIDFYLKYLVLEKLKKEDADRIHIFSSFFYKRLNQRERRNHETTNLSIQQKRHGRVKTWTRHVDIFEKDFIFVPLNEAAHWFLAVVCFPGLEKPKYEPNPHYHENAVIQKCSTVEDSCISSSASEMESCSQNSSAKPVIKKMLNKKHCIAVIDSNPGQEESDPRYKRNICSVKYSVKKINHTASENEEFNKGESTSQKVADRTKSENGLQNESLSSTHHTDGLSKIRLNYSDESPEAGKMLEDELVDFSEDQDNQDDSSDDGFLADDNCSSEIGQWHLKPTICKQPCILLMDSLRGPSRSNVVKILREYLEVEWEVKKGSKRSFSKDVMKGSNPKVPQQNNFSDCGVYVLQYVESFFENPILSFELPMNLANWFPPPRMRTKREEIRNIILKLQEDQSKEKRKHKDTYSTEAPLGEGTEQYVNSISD
# Orexin receptor type 2 [5] = target: T5, Orexin receptor type 2 (Homo sapiens, UniProt O43614); assay: Counterscreen assay for antagonists of the orexin 1 receptor (OX1R; HCRTR1): Homogeneous Time Resolved Fluorescence (HTRF)-based cell-based dose response assay for antagonists of the orexin 2 receptor (OX2R; HCRTR2), run by assay provider.; format: functional
# T5 sequence (O43614 whole entry): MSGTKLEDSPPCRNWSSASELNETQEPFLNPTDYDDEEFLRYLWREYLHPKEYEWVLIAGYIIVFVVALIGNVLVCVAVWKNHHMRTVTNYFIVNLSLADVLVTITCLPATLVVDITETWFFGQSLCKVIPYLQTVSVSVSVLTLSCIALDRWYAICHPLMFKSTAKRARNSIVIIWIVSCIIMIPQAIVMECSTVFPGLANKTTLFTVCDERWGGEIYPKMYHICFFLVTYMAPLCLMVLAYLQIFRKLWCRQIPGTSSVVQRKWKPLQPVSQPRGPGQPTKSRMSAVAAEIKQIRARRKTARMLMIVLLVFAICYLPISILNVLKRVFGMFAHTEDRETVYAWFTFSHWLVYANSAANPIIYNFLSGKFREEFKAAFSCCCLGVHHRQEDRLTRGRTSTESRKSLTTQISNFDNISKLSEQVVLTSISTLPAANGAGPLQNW
# [6] = target: T6, Orexin/Hypocretin receptor type 1 (Homo sapiens, UniProt O43613); assay: Homogeneous Time Resolved Fluorescence (HTRF)-based cell-based high throughput dose response assay for antagonists of the orexin 1 receptor (OX1R; HCRTR1). [Related pubchem assays (depositor defined):AID434989, AID435008, AID463079, AID485270, AID492963, AID492964, AID492965, AID493232, AID504717, AID504718]; format: functional
# T6 sequence (O43613 whole entry): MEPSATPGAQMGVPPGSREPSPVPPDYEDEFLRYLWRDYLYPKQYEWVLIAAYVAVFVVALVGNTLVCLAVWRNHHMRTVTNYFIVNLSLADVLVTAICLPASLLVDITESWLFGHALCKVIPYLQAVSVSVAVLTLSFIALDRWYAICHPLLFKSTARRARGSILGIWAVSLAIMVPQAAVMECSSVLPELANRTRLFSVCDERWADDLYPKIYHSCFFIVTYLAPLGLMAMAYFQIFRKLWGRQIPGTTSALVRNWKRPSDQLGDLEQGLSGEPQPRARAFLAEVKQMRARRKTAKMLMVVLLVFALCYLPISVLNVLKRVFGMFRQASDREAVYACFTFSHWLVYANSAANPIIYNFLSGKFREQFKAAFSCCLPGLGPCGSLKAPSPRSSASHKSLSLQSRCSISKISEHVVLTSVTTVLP
# CHO-K1 = assay: Counterscreen for antagonists of the orexin 1 receptor (OX1R; HCRTR1): Homogeneous time resolved fluorescence (HTRF)-based cell-based dose response assay to identify antagonists of the parental CHO-K1 cell line. [Related pubchem assays (depositor defined):AID434989, AID435008, AID463079, AID485270, AID492963, AID492964, AID492965, AID493232, AID504699, AID504701]; format: functional; settings: Cricetulus griseus;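 also: potency for inhibition of ATP-stimulated IP1 production as antagonists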
# [7] = target: T6, Orexin/Hypocretin receptor type 1; assay: Fluorescence-based cell-based high throughput dose response assay for antagonists of the orexin 1 receptor (OX1R; HCRTR1). [Related pubchem assays (depositor defined):AID434989, AID435008, AID463079, AID485270, AID492963, AID492964, AID492965, AID493232, AID504717, AID504718]; format: functional
# Orexin receptor type 2 [8] = target: T5, Orexin receptor type 2; assay: Counterscreen assay for antagonists of the orexin 1 receptor (OX1R; HCRTR1): Fluorescence-based cell-based dose response assay for antagonists of the orexin 2 receptor (OX2R; HCRTR2), run by assay provider.; format: functional
# [9] = Counterscreen for antagonists of the orexin 1 receptor (OX1R; HCRTR1): Fluorescence-based cell-based high throughput dose response assay to identify antagonists of the parental CHO cell line. [Related pubchem assays (depositor defined):AID434989, AID435008, AID463079, AID485270, AID492963, AID492964, AID492965, AID493232, AID504699, AID504701]; format: functional
# [10] = target: T1, Sentrin-specific protease 8; assay: inhibition of human SENP8 cleavage activity – biochemical, luminescence, SAR follow-up (AID 504501); format: functional
# [11] = target: T4, Sentrin-specific protease 6; assay: SAR Analysis of small molecule inhibitors of Sentrin-specific protease 6 (SENP6) using a Luminescent assay. [Related pubchem assays (depositor defined):AID2582, AID2599]; format: functional
# [12] = target: T2, Sentrin-specific protease 7; assay: inhibition of human SENP7 cleavage activity – biochemical, luminescence, SAR follow-up (AID 504497); format: functional
# Caspase-3 [13] = target: T3, Caspase-3; assay: SAR Analysis of small molecule inhibitors of Sentrin-specific proteases (SENPs) using a Caspase-3 Selectivity assay. [Related pubchem assays (depositor defined):AID2540, AID2599, AID434973, AID489001]; format: functional
# [14] = target: Protein disulfide-isomerase (Homo sapiens, UniProt P07237); assay: inhibition of PDI-driven insulin aggregation – biochemical, turbidity, absorbance, cherry-picked samples, dose response (AID 602350); format: functional
# [15] = fluconazole-exposed Candida albicans growth modulators – fluorescence, retest, confirmation (AID 2467); format: functional, cell-based
# [16] = NIH-3T3 fibroblast cytotoxicity, dose response, cytotoxicity control, cell-based, fluorescence, Alamar Blue, secondary assay (AID 2327); format: functional;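 also: NIH-3T3 mouse fibroblasts cultured with fluconazole at 8 µg/mL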
# [17] = target: NAD-dependent protein deacylase sirtuin-5, mitochondrial (Homo sapiens, UniProt Q9NXA8); assay: sirtuin-5 deacylation blockers, concentration series – biochemical, fluorescence imaging, cherry-pick, set 5, dose response (AID 720591);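 also: desuccinylation of succinyl peptide AMC substrate read as fluorescence after trypsin release; potency of inhibitors that lower fluorescence and may act on trypsin instead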
# NAD-dependent protein deacylase sirtuin-5, mitochondrial, sequence (Q9NXA8 whole entry): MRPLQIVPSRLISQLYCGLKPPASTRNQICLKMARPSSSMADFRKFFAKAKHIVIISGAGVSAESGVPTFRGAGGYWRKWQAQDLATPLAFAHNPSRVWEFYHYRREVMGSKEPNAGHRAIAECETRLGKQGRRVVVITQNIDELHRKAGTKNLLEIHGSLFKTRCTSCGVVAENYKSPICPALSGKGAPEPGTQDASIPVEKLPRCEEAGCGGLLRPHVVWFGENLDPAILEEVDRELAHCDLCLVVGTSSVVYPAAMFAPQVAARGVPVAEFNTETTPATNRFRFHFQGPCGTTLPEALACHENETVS
# Protein disulfide-isomerase, sequence (P07237 whole entry): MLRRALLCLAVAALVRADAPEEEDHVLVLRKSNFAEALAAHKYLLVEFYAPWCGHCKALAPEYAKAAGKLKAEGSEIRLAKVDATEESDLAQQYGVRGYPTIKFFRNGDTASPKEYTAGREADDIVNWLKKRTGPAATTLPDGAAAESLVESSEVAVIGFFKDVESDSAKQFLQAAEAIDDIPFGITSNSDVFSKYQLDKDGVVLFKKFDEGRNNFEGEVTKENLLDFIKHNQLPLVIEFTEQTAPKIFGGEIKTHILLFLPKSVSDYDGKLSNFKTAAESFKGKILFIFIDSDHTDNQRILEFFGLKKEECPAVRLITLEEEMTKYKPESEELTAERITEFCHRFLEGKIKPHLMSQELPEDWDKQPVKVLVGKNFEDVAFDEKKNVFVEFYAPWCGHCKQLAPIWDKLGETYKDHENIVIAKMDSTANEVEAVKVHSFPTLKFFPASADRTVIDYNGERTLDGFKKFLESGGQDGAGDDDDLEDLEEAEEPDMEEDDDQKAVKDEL
structure (smiles),measurement,setting,value
O=C(COc1ccc(Cl)cc1Cl)NCC(=O)N/N=C/c1c[nH]c2ccccc12,IC50,[1],> 99 µM (inactive)
same,IC50,[2],> 99 µM (inactive)
same,IC50,Caspase-3 [3],> 99 µM (inactive)
same,IC50,[4],> 99 µM (inactive)
Cn1c2ccc(Cl)cc2c2nc3ccccc3nc21,IC50,Orexin receptor type 2 [5],> 50 µM (inactive)
same,IC50,[6],1.13 µM (active)
same,IC50,CHO-K1,> 66.2 µM (inactive)
same,IC50,[7],4.25 µM (active)
same,IC50,Orexin receptor type 2 [8],> 88.8 µM (inactive)
same,IC50,[9],> 49.8 µM (inactive)
CCc1cccc2sc(NC(=O)c3cccc(F)c3)nc12,IC50,[10],> 99 µM (inactive)
same,IC50,[11],> 99 µM (inactive)
same,IC50,[12],> 99 µM (inactive)
same,IC50,Caspase-3 [13],> 99 µM (inactive)
C[C@H]1CN([C@@H](C)CO)C(=O)c2cc(NC(=O)Cc3cn(C)c4ccccc34)ccc2O[C@H]1CN(C)S(=O)(=O)c1ccc(F)cc1,AC50,[14],19.5 µM (active)
CCOc1ccccc1C(=O)Nc1ccc2nc3n(c(=O)c2c1)CCCCC3,EC50,[15],> 38 µM (not active)
same,IC50,Orexin receptor type 2 [5],> 50 µM (inactive)
same,IC50,[6],0.417 µM (active)
same,IC50,CHO-K1,> 66.3 µM (inactive)
same,IC50,[7],2.58 µM (active)
same,IC50,Orexin receptor type 2 [8],> 88.8 µM (inactive)
same,EC50,[16],> 160 µM (inactive)
same,AC50,[17],> 30 µM (inactive)
same,IC50,[9],> 49.8 µM (inactive)
CC[C@]12c3[nH]c4cc(-c5ccco5)ccc4c3CCN1C(=O)[C@@H](CC(=O)NCCCOC)C[C@@H]2C(=O)N1CCN(C(=O)c2ccco2)CC1,AC50,[14],16.7 µM (active)
O=C(NCc1ccccc1F)C(=O)c1c[nH]c2ccccc12,IC50,[1],> 99 µM (inactive)
same,IC50,[2],> 99 µM (inactive)
same,IC50,Caspase-3 [3],> 99 µM (inactive)
same,IC50,[4],> 99 µM (inactive)
